US12679878B2, “CRF2 receptor agonists and their use in therapy” (SANOFI, priority 2020, dated 2026)
≈ marks a conversion by molar mass, not a printed value. Starred links: 1 amine or outer side, 2 acyl side, 3 side chain; linkers in the order of their positions; H or OH if unused. Non-standard residues stand in square brackets, D forms with d. Residues, ends and D or L forms follow the SMILES beside them. Groups on a side chain read outwards from the residue. *: point of attachment. C18 diacid = O=C(O)CCCCCCCCCCCCCCCCC(=O)*; γGlu = O=C(O)[C@H](CCC(=O)[*:2])N[*:1]; AEEA = NCCOCCOCC(=O)O; Aib = CC(C)(N)C(=O)O

Legend:
Type in all cases: physicochemical
[1] = Physical stability, Thioflavin T fibrillation assay (Example 14); conditions: Buffer B: 100 mM acetate buffer, pH 4.5, 2.7 mg/ml m-cresol; 3 mg/ml; 37° C. shaking
Summary of the method: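 Compounds at 3 mg/ml final in buffer were stressed at 37° C by repeated cycles of 10 s shaking at 960 rpm and 50 s rest. ThT fluorescence was read every 20 minutes in eight replicates, with fluorescence increase and lag time indicating fibrillation tendency.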

[2] = Solubility in buffer systems by UPLC-UV (Example 13)
Summary of the method: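 The supernatant was diluted 1:10 and quantified by UPLC-UV peak area against a reference standard curve, correcting for sequence-based extinction coefficients.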

[3] = Chemical stability, purity loss by UPLC-UV after 28 days at 40° C. vs 5° C., pH 4.5 acetate buffer (Example 12); conditions: 28 days 40° C. vs 5° C.; pH 4.5, 20 mM acetate buffer; 300 μM
Summary of the method: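 300 μM compound (purity-corrected) in 20 mM acetate buffer, pH 4.5, stored 28 days at 5 and 40° C. Purity by UPLC-UV as compound peak area over total peak area. Value is the purity difference between 5° C. and 40° C. samples, relative to the 5° C. purity, in percent.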

[4] = pH 4.5, Solubility in Buffer A [mg/ml]
[5] = pH 4.5, Solubility in Buffer B [mg/ml]
[6] = pH 7.4, Solubility in Buffer C [mg/ml]

| Structure (SMILES) | Increase in FI (fluorescence intensity) [1] | Lag time [1] [h] | solubility at 1 h [2, 4] [µg/mL] | solubility at 1 h [2, 5] [µg/mL] | solubility at 1 h [2, 6] [µg/mL] | Relative purity loss [%] [3] [%] |
| --- | --- | --- | --- | --- | --- | --- |
| CC[C@H](C)[C@H](N)C(=O)N[C@H](C(=O)N[C@@H](CC(C)C)C(=O)N[C@@H](CO)C(=O)N[C@@H](CC(C)C)C(=O)N[C@@H](CC(=O)O)C(=O)N[C@H](C(=O)N1CCC[C@H]1C(=O)N[C@H](C(=O)N[C@@H](CCCCN)C(=O)N[C@@H](CC(C)C)C(=O)N[C@@H](CCCCNC(=O)COCCOCCNC(=O)COCCOCCNC(=O)CC[C@H](NC(=O)CCCCCCCCCCCCCCCCC(=O)O)C(=O)O)C(=O)N[C@@H](CCCCN)C(=O)N[C@H](C(=O)N[C@@H](CC(C)C)C(=O)N[C@@H](CC(C)C)C(=O)N[C@@H](CCCCN)C(=O)N[C@@H](CCC(N)=O)C(=O)N[C@@H](CCC(=O)O)C(=O)N[C@@H](CCCNC(=N)N)C(=O)N[C@@H](CCC(N)=O)C(=O)N[C@@H](CCCCN)C(=O)N[C@@H](CCCCN)C(=O)NC(C)(C)C(=O)N[C@@H](CCCNC(=N)N)C(=O)N[C@@H](CCC(=O)O)C(=O)N[C@@H](CCC(N)=O)C(=O)N[C@@H](C)C(=O)N[C@@H](CCC(=O)O)C(=O)N[C@@H](CCCCN)C(=O)N[C@@H](CC(N)=O)C(=O)N[C@@H](CCCCN)C(=O)N[C@@H](CCC(N)=O)C(=O)N[C@H](C(=O)N[C@@H](CC(C)C)C(=O)N[C@@H](C)C(=O)N[C@@H](CCC(N)=O)C(=O)N[C@H](C(N)=O)C(C)C)[C@@H](C)CC)[C@@H](C)CC)[C@@H](C)CC)C(C)C)C(C)C [compound 99] (H-IVLSLDVPIKLK([AEEA-AEEA-γGlu-C18 diacid])KILLKQERQKK[Aib]REQAEKNKQILAQV-NH2) | No | >45 | > 10000 |  |  |  |
| CC[C@H](C)[C@H](N)C(=O)N[C@H](C(=O)N[C@@H](CC(C)C)C(=O)N[C@@H](CO)C(=O)N[C@@H](CC(C)C)C(=O)N[C@@H](CC(=O)O)C(=O)N[C@@H](C(=O)N1CCC[C@H]1C(=O)N[C@H](C(=O)N[C@@H](CCCCN)C(=O)N[C@@H](CC(C)C)C(=O)N[C@@H](CCCCNC(=O)COCCOCCNC(=O)COCCOCCNC(=O)CC[C@H](NC(=O)CCCCCCCCCCCCCCCCC(=O)O)C(=O)O)C(=O)N[C@@H](CCC(N)=O)C(=O)N[C@H](C(=O)N[C@@H](CC(C)C)C(=O)N[C@@H](CC(C)C)C(=O)N[C@@H](CCCCN)C(=O)N[C@@H](CCC(N)=O)C(=O)N[C@@H](CCC(=O)O)C(=O)N[C@@H](CCCNC(=N)N)C(=O)N[C@@H](CCC(N)=O)C(=O)N[C@@H](CCCCN)C(=O)N[C@@H](CCCCN)C(=O)NC(C)(C)C(=O)N[C@@H](CCCNC(=N)N)C(=O)N[C@@H](CCC(N)=O)C(=O)N[C@@H](CCCCN)C(=O)N[C@@H](C)C(=O)N[C@@H](CCC(=O)O)C(=O)N[C@@H](CCCCN)C(=O)N[C@@H](CC(N)=O)C(=O)N[C@@H](CCCCN)C(=O)N[C@@H](CCC(N)=O)C(=O)N[C@H](C(=O)N[C@@H](CC(C)C)C(=O)N[C@@H](C)C(=O)N[C@@H](CCC(N)=O)C(=O)N[C@H](C(N)=O)C(C)C)[C@@H](C)CC)[C@@H](C)CC)[C@@H](C)CC)C(C)C)C(C)C [compound 136] (H-IVLSLD[dV]PIKLK([AEEA-AEEA-γGlu-C18 diacid])QILLKQERQKK[Aib]RQKAEKNKQILAQV-NH2; N-terminus assumed) |  |  | > 8400 | > 8600 | 7800 (≈ 1510 µM) | 3.10 |
| CC[C@H](C)[C@H](N)C(=O)N[C@H](C(=O)N[C@@H](CC(C)C)C(=O)N[C@@H](CO)C(=O)N[C@@H](CC(C)C)C(=O)N[C@@H](CC(=O)O)C(=O)N[C@@H](C(=O)N1CCC[C@H]1C(=O)N[C@H](C(=O)N[C@@H](CCCCN)C(=O)N[C@@H](CC(C)C)C(=O)N[C@@H](CCCCNC(=O)COCCOCCNC(=O)COCCOCCNC(=O)CC[C@H](NC(=O)CCCCCCCCCCCCCCCCC(=O)O)C(=O)O)C(=O)N[C@@H](CCC(N)=O)C(=O)N[C@H](C(=O)N[C@@H](CC(C)C)C(=O)N[C@@H](CC(C)C)C(=O)N[C@@H](CCCCN)C(=O)N[C@@H](CCC(N)=O)C(=O)N[C@@H](CCC(=O)O)C(=O)N[C@@H](CCCNC(=N)N)C(=O)N[C@@H](CCC(N)=O)C(=O)N[C@@H](CCCCN)C(=O)N[C@@H](CCCCN)C(=O)N[C@@H](CCC(N)=O)C(=O)N[C@@H](CCCNC(=N)N)C(=O)N[C@@H](CCC(=O)O)C(=O)N[C@@H](CCC(N)=O)C(=O)N[C@@H](C)C(=O)N[C@@H](CCC(=O)O)C(=O)N[C@@H](CCCCN)C(=O)N[C@@H](CC(N)=O)C(=O)N[C@@H](CCCCN)C(=O)N[C@@H](CCC(N)=O)C(=O)N[C@H](C(=O)N[C@@H](CC(C)C)C(=O)N[C@@H](CCC(=O)O)C(=O)N[C@@H](CCC(N)=O)C(=O)N[C@H](C(N)=O)C(C)C)[C@@H](C)CC)[C@@H](C)CC)[C@@H](C)CC)C(C)C)C(C)C [compound 137] (H-IVLSLD[dV]PIKLK([AEEA-AEEA-γGlu-C18 diacid])QILLKQERQKKQREQAEKNKQILEQV-NH2; N-terminus assumed) |  |  | > 8600 | > 8400 | > 8700 | 4.80 |
| CC[C@H](C)[C@H](N)C(=O)N[C@H](C(=O)N[C@@H](CC(C)C)C(=O)N[C@@H](CO)C(=O)N[C@@H](CC(C)C)C(=O)N[C@@H](CC(=O)O)C(=O)N[C@@H](C(=O)N1CCC[C@H]1C(=O)N[C@H](C(=O)N[C@@H](CCCCN)C(=O)N[C@@H](CC(C)C)C(=O)N[C@@H](CCCCNC(=O)COCCOCCNC(=O)COCCOCCNC(=O)CC[C@H](NC(=O)CCCCCCCCCCCCCCCCC(=O)O)C(=O)O)C(=O)N[C@@H](CCC(N)=O)C(=O)N[C@H](C(=O)N[C@@H](CC(C)C)C(=O)N[C@@H](CC(C)C)C(=O)N[C@@H](CCCCN)C(=O)N[C@@H](CCC(N)=O)C(=O)N[C@@H](CCC(=O)O)C(=O)N[C@@H](CCCNC(=N)N)C(=O)N[C@@H](CCC(N)=O)C(=O)N[C@@H](CCCCN)C(=O)N[C@@H](CCCCN)C(=O)N[C@@H](CCC(N)=O)C(=O)N[C@@H](CCCNC(=N)N)C(=O)N[C@@H](CCC(N)=O)C(=O)N[C@@H](CCC(N)=O)C(=O)N[C@@H](C)C(=O)N[C@@H](CCC(=O)O)C(=O)N[C@@H](CCCCN)C(=O)N[C@@H](CC(N)=O)C(=O)N[C@@H](CCCCN)C(=O)N[C@@H](CCC(N)=O)C(=O)N[C@H](C(=O)N[C@@H](CC(C)C)C(=O)N[C@@H](C)C(=O)N[C@@H](CCC(N)=O)C(=O)N[C@H](C(N)=O)C(C)C)[C@@H](C)CC)[C@@H](C)CC)[C@@H](C)CC)C(C)C)C(C)C [compound 139] (H-IVLSLD[dV]PIKLK([AEEA-AEEA-γGlu-C18 diacid])QILLKQERQKKQRQQAEKNKQILAQV-NH2; N-terminus assumed) |  |  | > 9100 | > 8600 | > 8800 | 3.05 |
